US10508085B2, “Compounds and methods for IDO and TDO modulation, and indications therefor” (Plexxikon Inc., priority 2016, dated 2019)

Key:
[1] = molecular target: T1, Human Indoleamine 2,3-dioxygenase (IDO) (Homo sapiens, UniProt P14902); assay: Human IDO enzymatic assay (kynurenine level); type: biochemical; conditions: 6 nM IDO, 10 μM L-Trp; geometric mean; read-out: IDO1 GMean: IC50 (μM) (Biochemical Assay)
T1 construct: His tag (N); made in house; host or cells: E. coli
Procedure: (§1) Human Indoleamine 2,3-dioxygenase (IDO) and Tryptophan 2,3-dioxygenase (TDO) enzymatic assay
(§2) Human IDO or TDO with N-terminal His tag is purified in E. coli. The IDO enzymatic assay is performed using 6 nM IDO and 10 μM L-Trp in the presence of 10 mM ascorbic acid, 5 μM methylene blue, 100 nM catalase and 0.01% Tween 20 in 50 mM sodium phosphate buffer (pH 6.5). 19 μL of above reaction mixture is added to wells of 384 well reaction plate containing […] of various concentrations of test compound or DMSO vehicle and incubated for 20 minutes at room temperature. The TDO enzymatic reaction assay is performed using 1 nM TDO and 350 μM L-Trp in the presence of 10 mM ascorbic acid, 0.4 μM methylene blue, 100 nM catalase and 0.01% Tween 20 in 50 mM sodium phosphate buffer (pH 6.5). 19 μL of above reaction mixture is added to wells of 384 well reaction plate containing 1 μL of various concentrations of test compound or DMSO vehicle and incubated for 70 minutes at room temperature. 16 wells containing all the components of reaction mixture and 5% DMSO serve as high control. 16 well containing all the components except enzyme of reaction mixture and 5% DMSO serves as low control. Both IDO and TDO enzymatic reactions are stopped by addition of […] of 30% TCA and incubated 30 minutes at 50° C. to hydrolyze N-formylkynurenine produced by IDO or TDO to kynurenine. Upon measuring the kynurenine level, the percentage inhibition is calculated at individual concentrations relative to high and low controls. The data is analyzed by using nonlinear regression to generate IC50 values.

[2] = molecular target: T2, Human Tryptophan 2,3-dioxygenase (TDO) (Homo sapiens, UniProt P48775); assay: Human TDO enzymatic assay (kynurenine level); type: biochemical; conditions: 1 nM TDO, 350 μM L-Trp; geometric mean; read-out: TDO GMean: IC50 (μM) (Biochemical Assay)
T2 construct: His tag (N); made in house; host or cells: E. coli
Procedure: as §1, §2

T2 sequence (P48775 whole entry): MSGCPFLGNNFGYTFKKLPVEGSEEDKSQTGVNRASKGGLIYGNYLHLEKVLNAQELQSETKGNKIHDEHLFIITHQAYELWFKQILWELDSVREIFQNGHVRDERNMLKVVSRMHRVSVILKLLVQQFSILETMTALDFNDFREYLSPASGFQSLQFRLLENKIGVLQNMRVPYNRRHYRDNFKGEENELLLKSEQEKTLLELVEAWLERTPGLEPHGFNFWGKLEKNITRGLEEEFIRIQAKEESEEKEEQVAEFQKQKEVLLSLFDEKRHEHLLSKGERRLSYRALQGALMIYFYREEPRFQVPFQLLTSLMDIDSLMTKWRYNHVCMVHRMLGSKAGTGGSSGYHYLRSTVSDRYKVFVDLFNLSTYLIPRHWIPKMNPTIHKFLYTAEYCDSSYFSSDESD
T1 sequence (P14902 whole entry): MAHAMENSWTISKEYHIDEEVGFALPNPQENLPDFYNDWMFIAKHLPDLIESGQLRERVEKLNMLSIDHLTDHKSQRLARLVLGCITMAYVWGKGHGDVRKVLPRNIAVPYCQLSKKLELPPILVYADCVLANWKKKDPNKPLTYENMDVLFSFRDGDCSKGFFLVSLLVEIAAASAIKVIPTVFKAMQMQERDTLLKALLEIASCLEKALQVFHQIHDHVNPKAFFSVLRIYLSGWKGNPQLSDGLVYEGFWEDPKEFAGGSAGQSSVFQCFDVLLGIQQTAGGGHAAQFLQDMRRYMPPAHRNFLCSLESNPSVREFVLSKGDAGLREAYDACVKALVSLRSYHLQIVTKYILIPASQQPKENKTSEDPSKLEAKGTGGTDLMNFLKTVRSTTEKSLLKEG

SMILES	IC50 [1]	IC50 [2]
CC(C)(C1CCN(C(=O)NCc2ccc(F)cn2)CC1)[C@H](O)c1cc(Cl)cc2cn[nH]c12 [Compound P-0601, (S)-4-(1-(5-chloro-1H-indazol-7-yl)-1-hydroxy-2-methylpropan-2-yl)-N-((5-fluoropyridin-2-yl)methyl) piperidine 1-carboxamide]	0.0001 to 10 µM	0.0001 to 10 µM
CC(C)(C1CCN(C(=O)NCc2ccc(F)cc2)CC1)[C@H](O)c1cc(Cl)cc2cn[nH]c12 [Compound P-0602, (S)-4-(1-(5-chloro-1H-indazol-7-yl)-1-hydroxy-2-methylpropan-2-yl)-N-(4-fluorobenzyl) piperidine-1-carboxamide]	0.0001 to 10 µM	0.0001 to 10 µM
CC(C)(C1CCN(C(=O)Nc2ccccc2)CC1)C(O)c1cc(Cl)cc2[nH]ncc12 (stereo not drawn) [Compound P-0603, 4-(1-(6-chloro-1H-indazol-4-yl)-1-hydroxy-2-methylpropan-2-yl)-N-phenylpiperidine-1-carboxamide]	0.0001 to 10 µM	0.0001 to 10 µM
CC(C)(C1CCN(C(=O)Nc2ccc(Cl)nc2)CC1)C(O)c1cc(Cl)cc2cn[nH]c12 (stereo not drawn) [Compound P-0604, 4-(1-(5-chloro-1H-indazol-7-yl)-1-hydroxy-2-methylpropan-2-yl)-N-(6-chloropyridin-3-yl)piperidine-1-carboxamide]	0.0001 to 10 µM	0.0001 to 10 µM
COc1ccc(NC(=O)N2CCC(C(C)(C)C(O)c3cc(Cl)cc4cn[nH]c34)CC2)cn1 (stereo not drawn) [Compound P-0605, 4-(1-(5-chloro-1H-indazol-7-yl)-1-hydroxy-2-methylpropan-2-yl)-N-(6-methoxypyridin-3-yl)piperidine-1-carboxamide]	0.0001 to 10 µM	0.0001 to 10 µM

Other lines, results leading:

IC50 [1]	IC50 [2]	SMILES
0.0001 to 10 µM	0.0001 to 10 µM	CC(C)NC(=O)N1CCC(C(C)(C)[C@H](O)c2cc(Cl)cc3cn[nH]c23)CC1 [Compound P-0594, (S)-4-(1-(5-chloro-1H-indazol-7-yl)-1-hydroxy-2-methylpropan-2-yl)-N-isopropylpiperidine-1-carboxamide]
0.0001 to 10 µM	0.0001 to 10 µM	CC(C)(C1CCN(C(=O)NC2COC2)CC1)[C@H](O)c1cc(Cl)cc2cn[nH]c12 [Compound P-0595, (S)-4-(1-(5-chloro-1H-indazol-7-yl)-1-hydroxy-2-methylpropan-2-yl)-N-(oxetan-3-yl)piperidine-1-carboxamide]
0.0001 to 10 µM	0.0001 to 10 µM	CC(C)(C1CCN(C(=O)NCCCF)CC1)[C@H](O)c1cc(Cl)cc2cn[nH]c12 [Compound P-0596, (S)-4-(1-(5-chloro-1H-indazol-7-yl)-1-hydroxy-2-methylpropan-2-yl)-N-(3-fluoropropyl) piperidine-1-carboxamide]
0.0001 to 10 µM	0.0001 to 10 µM	CC(C)(C1CCN(C(=O)NCCCC#N)CC1)[C@H](O)c1cc(Cl)cc2cn[nH]c12 [Compound P-0597, (S)-4-(1-(5-chloro-1H-indazol-7-yl)-1-hydroxy-2-methylpropan-2-yl)-N-(3-cyanopropyl) piperidine-1-carboxamide]
0.0001 to 10 µM	0.0001 to 10 µM	CONC(=O)N1CCC(C(C)(C)[C@H](O)c2cc(Cl)cc3cn[nH]c23)CC1 [Compound P-0598, (S)-4-(1-(5-chloro-1H-indazol-7-yl)-1-hydroxy-2-methylpropan-2-yl)-N-methoxypiperidine-1-carboxamide]
0.0001 to 10 µM	0.0001 to 10 µM	CC1(CNC(=O)N2CCC(C(C)(C)[C@H](O)c3cc(Cl)cc4cn[nH]c34)CC2)CC1 [Compound P-0599, (S)-4-(1-(5-chloro-1H-indazol-7-yl)-1-hydroxy-2-methylpropan-2-yl)-N-((1-methylcyclopropyl)methyl)piperidine-1-carboxamide]
0.0001 to 10 µM	0.0001 to 10 µM	CC(C)(C1CCN(C(=O)N[C@H]2C[C@H](O)C2)CC1)[C@H](O)c1cc(Cl)cc2cn[nH]c12 [Compound P-0600, 4-((S)-1-(5-chloro-1H-indazol-7-yl)-1-hydroxy-2-methylpropan-2-yl)-N-((1r,3S)-3-hydroxycyclobutyl) piperidine-1-carboxamide]
